Activity calls are given as the source filed them. The calls are words filed in the database; no cut-off is given here.
Tests used:
[1] = Half-life in male Sprague-Dawley rat at 5 mg/kg, ip by LC-MS/MS analysis; format: ADME, organism-based; conditions: in vivo
[2] = Toxicity in female Balb/c nude mouse xenografted with human HCT-116 cells assessed as effect on heart weight at 5 to 30 mg/kg, ip administered every two days for 14 days; format: organism-based; conditions: in vivo, 336 h, dose 5-30 mg/kg, time 14 day
[3] = Toxicity in female Balb/c nude mouse xenografted with human HCT-116 cells assessed as effect on liver weight at 5 to 30 mg/kg, ip administered every two days for 14 days; format: organism-based; conditions: in vivo, 336 h, dose 5-30 mg/kg, time 14 day
HCT-116 [4] = assay: Antiproliferative activity against CDC37 knockout human HCT-116 cells assessed as inhibition of cell proliferation incubated for 72 hrs by MTT assay; format: functional, cell-based; conditions: HCT-116, 72 h
[5] = Toxicity in female Balb/c nude mouse xenografted with human HCT-116 cells assessed as pathological changes in spleen at 5 to 30 mg/kg, ip administered every two days for 14 days by H and E staining based analysis; format: organism-based; conditions: in vivo, 336 h, dose 5-30 mg/kg, time 14 day
MCF7 = assay: Antiproliferative activity against human MCF7 cells assessed as inhibition of cell proliferation incubated for 72 hrs by MTT assay; format: functional, cell-based; conditions: MCF7, 72 h
[6] = Metabolic stability in human liver microsomes assessed as parent compound remaining at 1 uM preincubated for 5 mins followed by NADPH addition and measured after 30 mins by LC-MS/MS analysis; format: ADME, Microsome; conditions: time 35 min, read-out: Stability
[7] = biological target: T1, Heat shock protein HSP 90-alpha (Homo sapiens, UniProt P07900); assay: Binding affinity to His-tagged HSP90alpha (unknown origin) assessed as dissociation constant by SPR analysis
HCT-116 [8] = assay: Inhibition of Myc-tagged HSP90 (unknown origin)/CDK4 (unknown origin) protein-protein interaction transfected in human HCT-116 cells at 1 to 5 uM incubated for 12 hrs by co-immunoprecipitation analysis; format: cell-based; conditions: dose 1-5 µM
[9] = Apparent volume of distribution in male Sprague-Dawley rat at 1 mg/kg, iv by LC-MS/MS analysis; format: ADME, organism-based; conditions: in vivo, read-out: Vz
[10] = Tmax in male Sprague-Dawley rat at 10 mg/kg, IG by LC-MS/MS analysis; format: ADME, organism-based; conditions: in vivo, po
[11] = Toxicity in female Balb/c nude mouse xenografted with human HCT-116 cells assessed as pathological changes in kidney at 5 to 30 mg/kg, ip administered every two days for 14 days by H and E staining based analysis; format: organism-based; conditions: in vivo, 336 h, dose 5-30 mg/kg, time 14 day
HT-29 = assay: Antiproliferative activity against human HT-29 cells assessed as inhibition of cell proliferation incubated for 72 hrs by MTT assay; format: functional, cell-based; conditions: HT-29, 72 h
[12] = Stability of compound in simulated gastric fluid at 100 uM incubated for 12 hrs; format: physicochemical; conditions: simulated gi fluid
[13] = AUC (0 to infinity) in male Sprague-Dawley rat at 10 mg/kg, IG by LC-MS/MS analysis; format: ADME, organism-based; conditions: in vivo, po
[14] = Metabolic stability in human liver microsomes assessed as terminal elimination half-life at 1 uM preincubated for 5 mins followed by NADPH addition and measured up to 120 mins by LC-MS/MS analysis; format: ADME, Microsome; conditions: time < 125 min, read-out: LambdaZ (converted)
[15] = biological target: Heat shock protein HSP90 (Homo sapiens) (UniProt P07900+P08238); assay: Induction of thermal stabilization of HSP90 in human HCT-116 cells at 10 uM at 53 to 55 degreeC by CETSA based Western blot analysis; format: cell-based
[16] = Bioavailability in male Sprague-Dawley rat at 5 mg/kg, ip by LC-MS/MS analysis; format: ADME, organism-based; conditions: in vivo
HCT-116 [17] = assay: Inhibition of Myc-tagged HSP90 C598A mutant (unknown origin)/HSF1 (unknown origin) protein-protein interaction transfected in human HCT-116 cells at 1 to 5 uM incubated for 12 hrs by co-immunoprecipitation analysis; format: cell-based; conditions: dose 1-5 µM
HCT-116 [18] = assay: Upregulation of HSP90 level in human HCT-116 cells at 0.1 to 5 uM incubated for 24 hrs by Western blot analysis; format: functional, cell-based; conditions: dose 0.1-5 µM
[19] = AUC (0 to infinity) in male Sprague-Dawley rat at 1 mg/kg, iv by LC-MS/MS analysis; format: ADME, organism-based; conditions: in vivo
[20] = Toxicity in female Balb/c nude mouse xenografted with human HCT-116 cells assessed as pathological changes in lung at 5 to 30 mg/kg, ip administered every two days for 14 days by H and E staining based analysis; format: organism-based; conditions: in vivo, 336 h, dose 5-30 mg/kg, time 14 day
HT-1080 = assay: Antiproliferative activity against human HT-1080 cells assessed as inhibition of cell proliferation incubated for 72 hrs by MTT assay; format: functional, cell-based; conditions: HT-1080, 72 h
[21] = Permeability of compound at pH 7.4 incubated for 4 hrs by PAMPA based UV analysis; format: ADME; conditions: read-out: permeability
[22] = Selectivity ratio of IC50 for antiproliferative activity against CDC37 knockout human HCT-116 cells to IC50 for antiproliferative activity against human HCT-116 cells; format: functional
[23] = Toxicity in female Balb/c nude mouse xenografted with human HCT-116 cells assessed as effect on spleen weight at 5 to 30 mg/kg, ip administered every two days for 14 days; format: organism-based; conditions: in vivo, 336 h, dose 5-30 mg/kg, time 14 day
Homo sapiens = species: Homo sapiens; assay: Covalent binding affinity to His-tagged C-terminal HSP90 C598A mutant (unknown origin) assessed as two phase melting curve at 100 uM incubated for 4 hrs by SYPRO fluorescent dye based thermal shift assay
HCT-116 [24] = assay: Antitumor activity against human HCT-116 cells xenografted in female Balb/c nude mouse assessed as inhibition of tumor growth at 5 to 30 mg/kg, ip administered every two days for 14 days; format: functional, organism-based; conditions: dose 5-30 mg/kg, time 14.0 day
[25] = Half-life in male Sprague-Dawley rat at 1 mg/kg, iv by LC-MS/MS analysis; format: ADME, organism-based; conditions: in vivo
[26] = Tmax in male Sprague-Dawley rat at 1 mg/kg, iv by LC-MS/MS analysis; format: ADME, organism-based; conditions: in vivo
[27] = Clearance in male Sprague-Dawley rat at 10 mg/kg, IG by LC-MS/MS analysis; format: ADME, organism-based; conditions: in vivo, po
[28] = AUC (0 to infinity) in male Sprague-Dawley rat at 5 mg/kg, ip by LC-MS/MS analysis; format: ADME, organism-based; conditions: in vivo
[29] = Apparent volume of distribution in male Sprague-Dawley rat at 10 mg/kg, IG by LC-MS/MS analysis; format: ADME, organism-based; conditions: in vivo, po
[30] = Volume of distribution at steady state in male Sprague-Dawley rat at 1 mg/kg, iv by LC-MS/MS analysis; format: ADME, organism-based; conditions: in vivo, read-out: Vdss
[31] = Cmax in male Sprague-Dawley rat at 10 mg/kg, IG by LC-MS/MS analysis; format: ADME, organism-based; conditions: in vivo, po
[32] = biological target: T1, Heat shock protein HSP 90-alpha; assay: Covalent binding affinity to recombinant full-length HSP90alpha (unknown origin) at C598 residue assessed as appearance of compound-modified peptide incubated for 12 hrs by LC-MS/MS analysis
[33] = Cmax in male Sprague-Dawley rat at 5 mg/kg, ip by LC-MS/MS analysis; format: ADME, organism-based; conditions: in vivo
[34] = Clearance in male Sprague-Dawley rat at 5 mg/kg, ip by LC-MS/MS analysis; format: ADME, organism-based; conditions: in vivo
[35] = Cmax in male Sprague-Dawley rat at 1 mg/kg, iv by LC-MS/MS analysis; format: ADME, organism-based; conditions: in vivo

SMILES: O=S(=O)(/C=C/c1cn(-c2ccccc2)nc1-c1cccnc1)c1ccccc1
- half-life [1]: 82.2 min
- Activity [2]: Non-toxic
- Activity [3]: Non-toxic
- IC50 (HCT-116 [4]): > 50000 nM
- Activity [5]: Non-toxic
- IC50 (MCF7): 2340 nM
- remaining at 0.5 h, 1 µM [6]: 64%
- Kd [7]: 1370 nM
- inhibition (HCT-116 [8]): Active
- Vd [9]: 0.86 L/kg
- Tmax [10]: 52.8 min
- Activity [11]: Non-toxic
- IC50 (HT-29): 2020 nM
- Stability [12]: Stable
- AUC(0-inf) [13]: 9810 ng·h/mL
- half-life at 1 µM [14]: 53.4 min
- Activity [15]: Active
- bioavailability [16]: 92.5%
- inhibition (HCT-116 [17]): inactive
- Activity (HCT-116 [18]): inactive
- AUC(0-inf) [19]: 1460 ng·h/mL
- Activity [20]: Non-toxic
- IC50 (HT-1080): 2710 nM
- Papp at 4 h [21]: 42.6 ×10⁻⁶ cm/s
- Ratio IC50 [22]: >50
- Activity [23]: Non-toxic
- Activity (Homo sapiens): inactive
- Activity (HCT-116 [24]): Active
- half-life [25]: 50.4 min
- Tmax [26]: 1.02 min
- CL/F [27]: 18 mL/min/kg
- AUC(0-inf) [28]: 6770 ng·h/mL
- Vz [29]: 3.18 L/kg
- Vd [30]: 0.52 L/kg
- Cmax [31]: 2400 ng/mL
- Activity [32]: Active
- Cmax [33]: 8350 ng/mL
- CL/F [34]: 12.2 mL/min/kg
- Cmax [35]: 3680 ng/mL

Reference: ChEMBL document CHEMBL6177982, “Structural Optimization of Pyrazole Compounds as Hsp90 Regulators with Enhanced Antitumor Activity” (J Med Chem, 2025)
